Test results from patent publication US6225306A, “Biphenyl derivatives and drug composition” (Wakamoto Pharmaceutical Co., Ltd., priority 1997, dated 2001).
Several values for one entry are separate records, joined by “and”; a condition that tells them apart may be missing. Equal entries are not always repeated. Where two headings read alike, the source gives them in different places.

Legend:
Normal Conscious Rat [1] = experiment: Aquaretic Effects in Normal Conscious Rat (urine volume); type: in vivo, rat (Sprague-Dawley, male)
Method: Aquaretic Effects in Normal Conscious Rat
(§1) Studies were performed with Sprague-Dawley male SPF rats (body weight: 240 to 320 g; 8-week-old). In this experiment, each group consisted of not less than 4 animals and rats were fasted over 16 to 20 hours. The animals were acclimatized in metabolic cages for one hour, then each compound to be tested was dissolved in 100% N,N-dimethylformamide or suspended in 5% gum arabic solution and administered to these animals intravenously (iv.) in a dose of 3 mg/kg or orally (p.o.) in a dose of 30 mg/kg. Immediately after the test compound or vehicle were orally administered, saline (25 ml/kg) was given orally. Spontaneous voided urines were collected for 4 hours after the administration of the compound and the amount of the urine were determined. In this case, the control group consisted of animals to which only 5% gum arabic was orally administered.
In addition, known compounds of Comparative Examples 2 and Comparative Examples 3 and 4 represented by the following formulas were used as control compounds.

Normal Conscious Rat [2] = experiment: Urinary electrolytes and urinary osmotic pressure in conscious rat; type: in vivo, rat (Sprague-Dawley, male); details: 0-2 hours, relation to urine volume
Method: as §1
Separately, the cumulative urine in each animal was collected for 2 hours after the administration of the compound, and analyze the amounts of sodium and potassium as electrolytes present in the urine (ion-selective electrode method), the amount of chlorine (coulometric titration) and urinary osmotic pressure (cryoscopic method). The results thus observed for typical compounds of the present invention are plotted on the accompanying drawings (FIGS. 1, 2, 3 and 4). […]. In this test, each compound tested was used in the following dose. […]

male ICR mice = experiment: Acute Toxicity Test; type: in vivo
Method: To groups of male ICR mice (6-week-old) each consisting of 5 animals, there were orally administered the compounds of Examples 13, 18, 25 and 30 and Comparative Examples 2 and 5 suspended in 5% gum arabic solution at doses of 150, 500 and 1500 mg/kg, followed by observation of the general symptoms of these animals during 7 days after the administration to thus evaluate the number of death. In this respect, mice were given feed and water ad libitum throughout this test except for the term extending from 16 to 20 hours before the administration and 4 hours after the administration.

Vasopressin V2 Receptor = Vasopressin V2 Receptor (Rattus norvegicus, UniProt Q00788); experiment: biochemical; type: binding, rat (Sprague-Dawley, female; kidney crude membrane); details: for inhibition at 0.1 µM: 1 h, read-out: Binding Rate of Vasopressin V2 Receptor; for IC50: [3H] vasopressin V2 antagonist 2 nM, 25° C., 60 minutes, read-out: Affinity for Vasopressin V2 Receptor, IC50
Vasopressin V1 Receptor = Vasopressin V1 Receptor (Rattus norvegicus, UniProt P30560); experiment: biochemical; type: binding, rat (Sprague-Dawley, female; liver crude membrane); details: for inhibition at 0.1 µM: 1 h, read-out: Binding Rate of Vasopressin V1 Receptor
Method: The livers excised from Sprague-Dawley female rats were cut into small pieces, and were homogenized in 50 mM Tris-HCl, pH 7.4 hereunder referred to as "buffer"). The homogenate was centrifuged at 50000×g, at 4° C. for 20 minutes. The pellet was added the buffer in an amount of 10 times the volume of the pellet, the mixture was recentrifuged by the same method as described above to wash the residue. The buffer was further added to the resulting pellet so that the protein content thereof was adjusted to 10 mg/ml to thus give a crude membrane fraction of rat liver. The crude membrane fraction of rat liver was used in the following test. More specifically, 5000 μg of the crude liver membrane was incubated with [^3 H]-Arg-vasopressin V-1 antagonist ([^3 H) vasopressin V1 antagonist: 2 nM) and various concentration (3×10^-12 to 10^-6) of the test compounds in a 1000 μL of buffer containing 10 mM magnesium chloride, 10 mM potassium chloride and 0.1% bovine serum albumin at 25° C. for 60 minutes. Thereafter the incubation mixture was rapidly filtered by vacuum using a cell harvester. The filters were washed with buffer to remove free ligands and excess buffer, and to thus trap labeled ligand linked with the receptor on the filter paper. The filter paper was sufficiently dried and mixed with a liquid scintillator, and the amount of the [^3 H] vasopressin V1 antagonist bonded to the membrane was determined using a liquid scintillation counter. The inhibition rate at each concentration was calculated according to the following equation:
Inhibition Rate (%)=100-[(B-N)/(B0 -N)]×100
Wherein B represents the amount of the [^3 H] vasopressin V1 antagonist bonded to the membrane in the presence of known amounts of the compound to be tested and the [^3 CH] vasopressin V1 antagonist;
B0 represents the amount of the [^3 H] vasopressin V1 antagonist bonded to the membrane in the absence of the compound to be tested;
N represents the amount of the [^3 H] vasopressin V1 antagonist bonded to the membrane in the presence of an excess of vasopressin (10^-6 M).
The IC50 value (the concentration required to cause 50% inhibition of the specific binding of [^3 H]-V1 antagonist) was determined. […] On the other hand, for the compounds which were investigated only one concentration (10^-7 M), the inhibition rate at that concentration was defined to be the binding rate.

[3] = 500 mg/kg, oral, 7 days observation
[4] = 1500 mg/kg, oral, 7 days observation
[5] = 10^-7 M, inhibition rate at this concentration
[6] = [3H] vasopressin V1 antagonist 2 nM, 25° C., 60 minutes, read-out: Affinity for Vasopressin V1 Receptor, IC50
[7] = 150 mg/kg, oral, 7 days observation

Chain of Vasopressin V1 Receptor (P30560 whole entry): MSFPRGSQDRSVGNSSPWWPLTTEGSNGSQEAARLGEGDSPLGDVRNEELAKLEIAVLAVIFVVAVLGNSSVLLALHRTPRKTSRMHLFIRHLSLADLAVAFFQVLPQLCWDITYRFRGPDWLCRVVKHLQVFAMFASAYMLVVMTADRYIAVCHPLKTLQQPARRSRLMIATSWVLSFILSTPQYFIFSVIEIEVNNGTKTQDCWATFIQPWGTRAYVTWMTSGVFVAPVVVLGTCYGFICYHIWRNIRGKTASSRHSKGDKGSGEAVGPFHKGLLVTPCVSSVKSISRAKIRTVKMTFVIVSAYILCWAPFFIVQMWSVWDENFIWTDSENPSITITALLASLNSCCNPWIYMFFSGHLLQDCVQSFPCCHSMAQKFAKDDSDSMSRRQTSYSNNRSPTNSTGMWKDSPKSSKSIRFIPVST
Chain of Vasopressin V2 Receptor (Q00788 whole entry): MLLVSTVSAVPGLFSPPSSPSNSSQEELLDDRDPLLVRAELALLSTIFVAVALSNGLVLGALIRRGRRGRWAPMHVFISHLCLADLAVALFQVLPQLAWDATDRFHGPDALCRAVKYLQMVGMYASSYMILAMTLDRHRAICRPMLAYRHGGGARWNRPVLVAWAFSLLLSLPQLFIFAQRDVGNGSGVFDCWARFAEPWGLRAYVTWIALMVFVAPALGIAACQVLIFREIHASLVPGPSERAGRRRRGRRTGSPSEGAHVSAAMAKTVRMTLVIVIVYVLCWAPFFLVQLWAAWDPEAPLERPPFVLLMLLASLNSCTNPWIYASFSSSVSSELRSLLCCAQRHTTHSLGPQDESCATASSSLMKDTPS

Structure (SMILES) | Amount of Urine Volume (Normal Conscious Rat [1]; 3 mg/kg, i.v.) | Amount of Urine Volume (Normal Conscious Rat [1]; 30 mg/kg, p.o.) | urinary osmotic pressure (Normal Conscious Rat [2]; FIG. 4) | amount of electrolytes excreted in the urine (Normal Conscious Rat [2]; FIGS. 1-3) | number of death out of 5 or 6 animals (male ICR mice; [3]) | number of death out of 5 or 6 animals (male ICR mice; [4]) | inhibition at 0.1 µM (Vasopressin V2 Receptor; [5]) | IC50 (Vasopressin V2 Receptor) | inhibition at 0.1 µM (Vasopressin V1 Receptor; [5]) | IC50 (Vasopressin V1 Receptor; [6]) | number of death out of 5 or 6 animals (male ICR mice; [7]) | inhibition at 0.1 µM (Vasopressin V2 Receptor) | IC50 (Vasopressin V1 Receptor) | inhibition at 0.1 µM (Vasopressin V1 Receptor) | number of death out of 5 or 6 animals (male ICR mice; mouse, in vivo)
NS(=O)(=O)c1cc(C(=O)O)c(NCc2ccco2)cc1Cl [Comp. Ex. 3, Furosemide, reference compound] | 27.3 ml/kg/0-4 hr. | 59.9 ml/kg/0-4 hr. | increased approximately in proportion to the increase in the amount of the urine | increased approximately in proportion to the increase in the amount of the urine |  |  |  |  |  |  |  |  |  |  | 
O=C(Nc1ccc(C(=O)N2C[C@H]3C[C@@H](O)CN3c3ccccc32)cc1)c1ccccc1-c1ccccc1 [Example 13, (2R,3aR)-2-Hydroxy-5-[4-[(2-Phenylbenzoyl) Amino]Benzoyl]-1,2,3,3a,4,5-Hexahydro-Pyrrolo[1,2-a]Quinoxaline] | 55.6 ml/kg/0-4 hr. | 82.0 ml/kg/0-4 hr. |  |  | 0/5 | 0/5 |  |  |  |  |  |  |  |  | 
Cc1ccc(-c2ccccc2C(=O)Nc2ccc(C(=O)N3C[C@H]4C[C@H](O)CN4c4ccccc43)cc2)cc1 [Example 18, (2S, 3aR)-2-Hydroxy-5-[4-[[2-(4-Tolyl) Benzoyl]Amino]Benzoyl]-1,2,3,3a,4,5-Hexahydro-Pyrrolo[1,2-a]Quinoxaline] | 79.2 ml/kg/0-4 hr. | 96.3 ml/kg/0-4 hr. |  |  | 0/6 | 0/6 | 100% | 0.18 nM | 58.3% | 66 nM | 0/6 |  |  |  | 
Cc1ccccc1C(=O)Nc1ccc(C(=O)N2CCCC(N(C)C)c3ccccc32)cc1 (centres unmarked) [Comp. Ex. 2, reference compound] | 22.9 ml/kg/0-4 hr. | 79.1 ml/kg/0-4 hr. |  |  |  |  |  |  |  |  |  | 91.2% | > 1000 nM | 3.4% | 4 out of 5 and 0/5 and 4/5
O=C(Nc1ccc(C(=O)N2C[C@@H]3CCCN3C(=O)c3ccccc32)cc1)c1ccccc1-c1ccccc1 [Example 25, (11aS)-10-[4-[(2-Phenylbenzoyl) Amino]Benzoyl]-1,2,3,10,11, 11a-Hexahydro-5H-Pyrrolo[2,1-c][1,4]Benzodiazepin-5-One] | 58.5 ml/kg/0-4 hr. | 102.7 ml/kg/0-4 hr. |  |  | 0/6 | 0/6 | 100% | 1.6 nM | 4.1% | > 1000 nM | 0/6 |  |  |  | 
